From paper PMC12133982, “Predominant T-cell epitopes of SARS-CoV-2 restricted by multiple prevalent HLA-B and HLA-C allotypes in Northeast Asia” (Frontiers in Immunology, 2025)
Peptide text beside a SMILES is read from it.

Experiments:
HLA-C0304 = HLA-C0304 (Homo sapiens, UniProt P10321, A176E/A330V/A97T/C25G/C350S/D114A/D33Y/E197K/L119I/L127V/L171W/L218V/M285V/M309V/M331V/P208H/Q277E/Q291P/R243W/R45H/S123Y/S140Y/S297R/S48A/T118I/T187L/T329A/T363A/V319A); assay: Competitive peptide binding assay, CIR-C0304; settings: HMy2.CIR-C0304 cells, reference Cy5-[…], class from inhibition at 5 and 15 μM, flow cytometry MFI; read-out: Binding affinity with HLA-C0304
Description: (§1) Then, competitive peptide binding assays were performed.

HLA-C0801 = HLA-C0801 (Homo sapiens, UniProt P10321, A176T/A330V/A97T/C350S/D114A/D138N/D33Y/E201K/E299G/L171W/L218V/M285V/M309V/M331V/P208H/Q277E/Q291P/R59Q/S123Y/S140F/S297R/S48A/T329A/T363A/V319A/V328M); assay: Competitive peptide binding assay, CIR-C0801; settings: HMy2.CIR-C0801 cells, reference Cy5-[…], class from inhibition at 5 and 15 μM, flow cytometry MFI; read-out: Binding affinity with HLA-C0801
Description: as §1

HLA-C0602 = HLA-C0602 (Homo sapiens, UniProt P10321, A176E/A330V/C350S/L171W/L180W/L218V/M285V/M309V/M331V/N104K/P208H/Q277E/Q291P/R121W/S101N/S123Y/S297R/T329A/T363A/V319A/V328M); assay: Competitive peptide binding assay, CIR-C0602
HLA-C0102 = HLA-C0102 (Homo sapiens, UniProt P10321, A176E/A330V/A35S/A97T/C350S/D114A/D33F/L171W/L180R/L218V/M285V/M309V/M331V/P208H/Q277E/Q291P/R121W/R243W/R30K/S123C/S140Y/S297R/T329A/T363A/V272M/V319A); assay: Competitive peptide binding assay, CIR-C0102; settings: for IC50: HMy2.CIR-C0102 cells, reference Cy5-[…], class from inhibition at 5 and 15 μM, flow cytometry MFI, read-out: Binding affinity with HLA-C0102
Description: as §1

HLA-C0401 = HLA-C0401 (Homo sapiens, UniProt P10321, A176E/A330V/A35S/A73E/C25G/C350S/D138N/D33S/E299K/L171W/L180R/L218V/M285V/M309V/M331V/N104K/P208H/Q277E/Q291P/R243W/R38W/S101N/S123F/S140F/S297R/S48A/T329A/T363A/V319A/V327M); assay: Competitive peptide binding assay, CIR-C0401; settings: HMy2.CIR-C0401 cells, reference Cy5-[…], class from inhibition at 5 and 15 μM, flow cytometry MFI; read-out: Binding affinity with HLA-C0401
Description: as §1

HLA-C0302 = HLA-C0302 (Homo sapiens, UniProt P10321, A176E/A330V/A97T/C25G/C350S/D114A/D33Y/E197K/L127V/L171W/L218V/M285V/M309V/M331V/P208H/Q277E/Q291P/R243W/R45H/S123Y/S297R/S48A/T118I/T187L/T329A/T363A/V319A); assay: Competitive peptide binding assay, CIR-C0302; settings: HMy2.CIR-C0302 cells, reference Cy5-[…], class from inhibition at 5 and 15 μM, flow cytometry MFI; read-out: Binding affinity with HLA-C0302
Description: as §1

HLA-C0702 = HLA-C0702 (Homo sapiens, UniProt P10321); assay: Competitive peptide binding assay, CIR-C0702
HLA-B5801 = HLA-B5801 (Homo sapiens, UniProt P01889, A329T/C349S/D201E/D98Y/E176V/E187L/E204Q/E69T/G107R/I218V/I90N/K202T/L105A/L119I/N104I/N87E/Q89R/Q94S/R106L/R155S/R180L/R86G/S101N/S121R/S35A/S48A/T118I/V127L/V306I/V36M/Y140S/Y91M); assay: Competitive peptide binding assay, CIR-B5801; settings: HMy2.CIR-B5801 cells, reference Cy5-[…], class from inhibition at 5 and 15 μM, flow cytometry MFI; read-out: Binding affinity with HLA-B5801
Description: as §1

HLA-B4601 = HLA-B4601 (Homo sapiens, UniProt P01889, A329T/A93R/C349S/D201E/E100V/E187L/E204Q/E69M/E70A/I90K/K202T/N87E/R155S/R180W/S121R/S35A/S48A/V306I/V36M/Y140S); assay: Competitive peptide binding assay, CIR-B4601; settings: HMy2.CIR-B4601 cells, reference Cy5-[…], class from inhibition at 5 and 15 μM, flow cytometry MFI; read-out: Binding affinity with HLA-B4601
Description: as §1

HLA-B1501 = HLA-B1501 (Homo sapiens, UniProt P01889, A329T/A93T/A95T/C349S/D201E/D98Y/E187L/E204Q/E69M/E70A/K202T/N87E/Q94N/R155S/R180W/S121R/S35A/S48A/V306I/V36M/Y140S/Y91S); assay: Competitive peptide binding assay, CIR-B1501; settings: HMy2.CIR-B1501 cells, reference Cy5-[…], class from inhibition at 5 and 15 μM, flow cytometry MFI; read-out: Binding affinity with HLA-B1501
Description: as §1

HLA-B4001 = HLA-B4001 (Homo sapiens, UniProt P01889, A65T/A93T/A95T/D138N/D98Y/E176V/E69K/N87E/Q56L/Q94N/R180L/S121R/S35A/S48T/T167S/V36M/W171L/Y33H/Y91S); assay: Competitive peptide binding assay, CIR-B4001; settings: HMy2.CIR-B4001 cells, reference Cy5-[…], class from inhibition at 5 and 15 μM, flow cytometry MFI; read-out: Binding affinity with HLA-B4001
Description: as §1

HLA-B1502 = HLA-B1502 (Homo sapiens, UniProt P01889, A329T/A93T/A95T/C349S/D201E/D98Y/E187L/E204Q/E69M/E70A/H137Y/K202T/L119I/Q94N/R155S/R180L/S121R/S35A/S48A/T118I/V306I/V36M/Y140S/Y91S); assay: Competitive peptide binding assay, CIR-B1502; settings: HMy2.CIR-B1502 cells, reference Cy5-[…], class from inhibition at 5 and 15 μM, flow cytometry MFI; read-out: Binding affinity with HLA-B1502
Description: as §1

HLA-B3501 = HLA-B3501 (Homo sapiens, UniProt P01889, A329T/A93T/A95T/C349S/D201E/D98Y/E176V/E187L/E204Q/E69T/I218V/K202T/L119I/Q94N/R155S/R180L/S121R/S35A/S48A/T118I/V127L/V306I/V36M/Y140S/Y91F); assay: Competitive peptide binding assay, CIR-B3501; settings: HMy2.CIR-B3501 cells, reference Cy5-[…], class from inhibition at 5 and 15 μM, flow cytometry MFI; read-out: Binding affinity with HLA-B3501
Description: as §1

[1] = read-out: Inhibition % of Cy5-reference peptide binding

| SMILES | IC50 (HLA-C0304) | IC50 (HLA-C0801) | IC50 (HLA-C0602) | IC50 (HLA-C0102) | IC50 (HLA-C0401) | inhibition at 5 µM (HLA-C0102; [1]) | inhibition at 15 µM (HLA-C0102; [1]) | IC50 (HLA-C0302) | IC50 (HLA-C0702) | IC50 (HLA-B5801) | IC50 (HLA-B4601) | IC50 (HLA-B1501) | IC50 (HLA-B4001) | IC50 (HLA-B1502) | IC50 (HLA-B3501) |
| --- | --- | --- | --- | --- | --- | --- | --- | --- | --- | --- | --- | --- | --- | --- | --- |
| CC(C)C[C@H](NC(=O)[C@@H](NC(=O)[C@@H](NC(=O)CNC(=O)[C@H](CCC(N)=O)NC(=O)[C@@H]1CCCN1C(=O)[C@H](CC(C)C)NC(=O)[C@H](CCC(N)=O)NC(=O)[C@H](CC(C)C)NC(=O)[C@@H](N)C(C)C)[C@@H](C)O)[C@@H](C)O)C(=O)O [Epitope M18] (H-VLQLPQGTTL-OH; N-terminus and C-terminus assumed) | > 15 µM | > 15 µM | > 15 µM | 5 to 15 µM | – | – | – | – | – | – | – | – | – | – | – |
| CC[C@H](C)[C@H](NC(=O)[C@@H]1CCCN1C(=O)[C@@H](NC(=O)[C@H](Cc1c[nH]cn1)NC(=O)[C@H](CCCCN)NC(=O)[C@H](CO)NC(=O)[C@H](Cc1ccc(O)cc1)NC(=O)[C@@H](NC(=O)[C@@H](N)CCCCN)[C@@H](C)CC)[C@@H](C)O)C(=O)O [Epitope M34] (H-KIYSKHTPI-OH; N-terminus and C-terminus assumed) | > 15 µM | – | – | < 5 µM | 5 to 15 µM | 77.4% | 91.2% | > 15 µM | – | – | – | – | – | – | – |
| CC(C)C[C@H](NC(=O)[C@@H](NC(=O)[C@H](CCCNC(=N)N)NC(=O)[C@H](CO)NC(=O)[C@@H](NC(=O)[C@H](C)NC(=O)[C@@H](N)C(C)C)[C@@H](C)O)[C@@H](C)O)C(=O)N[C@@H](CO)C(=O)N[C@@H](Cc1ccc(O)cc1)C(=O)O [Epitope M72] (H-VATSRTLSY-OH; N-terminus and C-terminus assumed) | > 15 µM | < 5 µM | – | – | > 15 µM | – | – | > 15 µM | > 15 µM | – | – | – | – | – | – |
| C[C@H](NC(=O)CNC(=O)[C@H](C)NC(=O)[C@@H](NC(=O)[C@@H](N)Cc1c[nH]c2ccccc12)[C@@H](C)O)C(=O)N[C@@H](C)C(=O)N[C@@H](C)C(=O)N[C@@H](Cc1ccc(O)cc1)C(=O)N[C@@H](Cc1ccc(O)cc1)C(=O)O [Epitope Y174] (H-WTAGAAAYY-OH; N-terminus and C-terminus assumed) | – | – | – | – | – | – | – | – | – | > 15 µM | > 15 µM | 5 to 15 µM | > 15 µM | < 5 µM | > 15 µM |
